# Source: patent publication US20260250290A1 (BRISTOL-MYERS SQUIBB COMPANY, priority 2023, published 2026)
# pIC50: −log10 of the molar value.
# Molecular target: T1, full length SGK1 (Homo sapiens, UniProt O00141)
# T1 construct: 125 μM full length SGK1 (Life Technologies Part #PR7358A); purchased Life Technologies PR7358A
# T1 sequence (O00141 1-431): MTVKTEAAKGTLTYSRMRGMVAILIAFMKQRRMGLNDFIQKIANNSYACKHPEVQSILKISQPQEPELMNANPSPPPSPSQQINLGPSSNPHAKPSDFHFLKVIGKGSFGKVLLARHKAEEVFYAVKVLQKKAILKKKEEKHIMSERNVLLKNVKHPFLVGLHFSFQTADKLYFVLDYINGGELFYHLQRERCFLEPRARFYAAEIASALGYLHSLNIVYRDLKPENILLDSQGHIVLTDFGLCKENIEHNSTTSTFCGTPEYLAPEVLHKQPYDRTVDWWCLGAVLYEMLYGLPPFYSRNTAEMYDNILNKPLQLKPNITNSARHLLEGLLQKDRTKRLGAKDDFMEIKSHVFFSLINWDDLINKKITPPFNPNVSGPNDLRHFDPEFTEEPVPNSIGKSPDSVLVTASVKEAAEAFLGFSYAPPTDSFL
# Assay: SGK1 inhibition Assay A (Caliper LabChip electrophoretic separation of fluorescent peptide substrate and phosphorylated product)
# Assay type: biochemical
# Settings: Assay A; 20 μM ATP, 40 min incubation; read-out: SGK1 IC50
row,SMILES,pIC50
1,"Nc1ncnn2c(-c3ccnc(C(F)F)c3)cc(N3CCC[C@@H](NC(=O)c4sc(C(F)F)cc4N4CCOCC4)C3)c12 [Example 344, (R)—N-(1-(4-amino-7-(2-(difluoromethyl)pyridin-4-yl)pyrrolo[2,1-f][1,2,4]triazin-5-yl)piperidin-3-yl)-5-(difluoromethyl)-3-morpholinothiophene-2-carboxamide]",8.15
2,"Nc1ncnn2c(-c3ccnc(C(F)F)c3)cc(N3CCC[C@@H](NC(=O)c4sc(C(F)F)cc4N4CC5(COC5)C4)C3)c12 [Example 345, (R)—N-(1-(4-amino-7-(2-(difluoromethyl)pyridin-4-yl)pyrrolo[2,1-f][1,2,4]triazin-5-yl)piperidin-3-yl)-5-(difluoromethyl)-3-(2-oxa-6-azaspiro[3.3]heptan-6-yl)thiophene-2-carboxamide]",7.72
3,"Nc1ncnn2c(-c3ccc(NS(=O)(=O)c4cc(Cl)ccc4F)cc3)cc(N3CCC[C@@H](NC(=O)c4ccc(Cl)s4)C3)c12 [Example 346, (R)—N-(1-(4-amino-7-(4-((5-chloro-2-fluorophenyl)sulfonamido)phenyl)pyrrolo[2,1-f][1,2,4]triazin-5-yl)piperidin-3-yl)-5-chlorothiophene-2-carboxamide]",7.10
4,"CC(=O)N1CC=C(c2cc(N3CCC[C@@H](NC(=O)c4sc(C(F)F)cc4OC4CCNCC4)C3)c3c(N)ncnn23)C1 [Example 347, (R)—N-(1-(7-(1-acetyl-2,5-dihydro-1H-pyrrol-3-yl)-4-aminopyrrolo[2,1-f][1,2,4]triazin-5-yl)piperidin-3-yl)-5-(difluoromethyl)-3-(piperidin-4-yloxy)thiophene-2-carboxamide]",8.05
5,"COC(=O)N1CC=C(c2cc(N3CCC[C@@H](NC(=O)c4sc(C(F)F)cc4OC4CCNCC4)C3)c3c(N)ncnn23)C1 [Example 348, methyl (R)-3-(4-amino-5-(3-(5-(difluoromethyl)-3-(piperidin-4-yloxy)thiophene-2-carboxamido)piperidin-1-yl)pyrrolo[2,1-f][1,2,4]triazin-7-yl)-2,5-dihydro-1H-pyrrole-1-carboxylate]",8.22
6,"NC(=O)c1ccc(-c2cc(N3CCC[C@@H](NC(=O)c4sc(C(F)F)cc4OC4CCNCC4)C3)c3c(N)ncnn23)cc1F [Example 349, (R)-N-(1-(4-amino-7-(4-carbamoyl-3-fluorophenyl)pyrrolo[2,1-f][1,2,4]triazin-5-yl)piperidin-3-yl)-5-(difluoromethyl)-3-(piperidin-4-yloxy)thiophene-2-carboxamide]",8.70
7,"CC(=O)N1CC=C(c2cc(N3CCC[C@@H](NC(=O)c4sc(C(F)F)cc4OCC4CCNCC4)C3)c3c(N)ncnn23)C1 [Example 350, (R)—N-(1-(7-(1-acetyl-2,5-dihydro-1H-pyrrol-3-yl)-4-aminopyrrolo[2,1-f][1,2,4]triazin-5-yl)piperidin-3-yl)-5-(difluoromethyl)-3-(piperidin-4-ylmethoxy)thiophene-2-carboxamide]",7.89
8,"COC(=O)N1CC=C(c2cc(N3CCC[C@@H](NC(=O)c4sc(C(F)F)cc4OCC4CCNCC4)C3)c3c(N)ncnn23)C1 [Example 351, methyl (R)-3-(4-amino-5-(3-(5-(difluoromethyl)-3-(piperidin-4-yl-methoxy)thiophene-2-carboxamido)piperidin-1-yl)pyrrolo[2,1-f][1,2,4]triazin-7-yl)-2,5-dihydro-1H-pyrrole-1-carboxylate]",8.10
9,"CC(=O)N1CC=C(c2cc(N3CCC[C@@H](NC(=O)c4sc(C)nc4OCCN(C)C)C3)c3c(N)ncnn23)C1 [Example 352, (R)—N-(1-(7-(1-acetyl-2,5-dihydro-1H-pyrrol-3-yl)-4-aminopyrrolo[2,1-f][1,2,4]triazin-5-yl)piperidin-3-yl)-4-(2-(dimethylamino)ethoxy)-2-methylthiazole-5-carboxamide]",7.85
10,"COC(=O)N1CC=C(c2cc(N3CCC[C@@H](NC(=O)c4sc(C)nc4OCCN(C)C)C3)c3c(N)ncnn23)C1 [Example 353, Methyl (R)-3-(4-amino-5-(3-(4-(2-(dimethylamino)ethoxy)-2-methylthiazole-5-carboxamido)piperidin-1-yl)pyrrolo[2,1-f][1,2,4]triazin-7-yl)-2,5-dihydro-1H-pyrrole-1-carboxylate]",7.80
11,"Cc1nc(OCCN(C)C)c(C(=O)N[C@@H]2CCCN(c3cc(-c4ccc(C#N)nc4)n4ncnc(N)c34)C2)s1 [Example 354, (R)-N-(1-(4-amino-7-(6-cyanopyridin-3-yl)pyrrolo[2,1-f][1,2,4]triazin-5-yl)piperidin-3-yl)-4-(2-(dimethylamino)ethoxy)-2-methylthiazole-5-carboxamide]",8.22
12,"Cc1nc(OCCN(C)C)c(C(=O)N[C@@H]2CCCN(c3cc(-c4ccc(=O)n(CC(C)C)c4)n4ncnc(N)c34)C2)s1 [Example 355, (R)-N-(1-(4-amino-7-(1-isobutyl-6-oxo-1,6-dihydropyridin-3-yl)pyrrolo[2,1-f][1,2,4]triazin-5-yl)piperidin-3-yl)-4-(2-(dimethylamino)ethoxy)-2-methylthiazole-5-carboxamide]",7.33
13,"Cc1nc(OCCN(C)C)c(C(=O)N[C@@H]2CCCN(c3cc(-c4ccnc(C#N)c4)n4ncnc(N)c34)C2)s1 [Example 356, (R)-N-(1-(4-amino-7-(2-cyanopyridin-4-yl)pyrrolo[2,1-f][1,2,4]triazin-5-yl)piperidin-3-yl)-4-(2-(dimethylamino)ethoxy)-2-methylthiazole-5-carboxamide]",7.89
14,"CC(=O)N1CC=C(c2cc(N3CCC[C@@H](NC(=O)c4sc(C)nc4OC4CCN(C)CC4)C3)c3c(N)ncnn23)C1 [Example 357, (R)—N-(1-(7-(1-acetyl-2,5-dihydro-1H-pyrrol-3-yl)-4-aminopyrrolo[2,1-f][1,2,4]triazin-5-yl)piperidin-3-yl)-2-methyl-4-((1-methylpiperidin-4-yl)oxy)thiazole-5-carboxamide]",7.62
15,"CC(=O)N1CC=C(c2cc(N3CCC[C@@H](NC(=O)c4sc(C)nc4OC4CCNCC4)C3)c3c(N)ncnn23)C1 [Example 357E, (R)—N-(1-(7-(1-acetyl-2,5-dihydro-1H-pyrrol-3-yl)-4-aminopyrrolo[2,1-f][1,2,4]triazin-5-yl)piperidin-3-yl)-2-methyl-4-(piperidin-4-yloxy)thiazole-5-carboxamide]",7.72
16,"CC(=O)N1CC=C(c2cc(N3CCC[C@@H](NC(=O)c4sc(C)nc4OC4CCN(C(C)C)CC4)C3)c3c(N)ncnn23)C1 [Example 358, (R)-N-(1-(7-(1-acetyl-2,5-dihydro-1H-pyrrol-3-yl)-4-aminopyrrolo[2,1-f][1,2,4]triazin-5-yl)piperidin-3-yl)-4-((1-isopropylpiperidin-4-yl)oxy)-2-methylthiazole-5-carboxamide]",7.54
17,"Cc1nc(OC2CCN(C)CC2)c(C(=O)N[C@@H]2CCCN(c3cc(-c4ccc(C#N)nc4)n4ncnc(N)c34)C2)s1 [Example 362, (R)-N-(1-(4-amino-7-(6-cyanopyridin-3-yl)pyrrolo[2,1-f][1,2,4]triazin-5-yl)piperidin-3-yl)-2-methyl-4-((1-methylpiperidin-4-yl)oxy)thiazole-5-carboxamide]",7.72
18,"Cc1nc(OC2CCN(C(C)C)CC2)c(C(=O)N[C@@H]2CCCN(c3cc(-c4ccc(C#N)nc4)n4ncnc(N)c34)C2)s1 [Example 363, (R)-N-(1-(4-amino-7-(6-cyanopyridin-3-yl)pyrrolo[2,1-f][1,2,4]triazin-5-yl)piperidin-3-yl)-4-((1-isopropylpiperidin-4-yl)oxy)-2-methylthiazole-5-carboxamide]",8.15
19,"CC(=O)N1CC=C(c2cc(N3CCC[C@@H](NC(=O)c4[nH]c5ccccc5c4OCCN(C)C)C3)c3c(N)ncnn23)C1 [Example 364, (R)—N-(1-(7-(1-acetyl-2,5-dihydro-1H-pyrrol-3-yl)-4-aminopyrrolo[2,1-f][1,2,4]triazin-5-yl)piperidin-3-yl)-3-(2-(dimethylamino)ethoxy)-1H-indole-2-carboxamide]",7.92
20,"COC(=O)N1CC=C(c2cc(N3CCC[C@@H](NC(=O)c4[nH]c5ccccc5c4OCCN(C)C)C3)c3c(N)ncnn23)C1 [Example 365, Methyl (R)-3-(4-amino-5-(3-(3-(2-(dimethylamino)ethoxy)-1H-indole-2-carboxamido)piperidin-1-yl)pyrrolo [2,1-f][1,2,4]triazin-7-yl)-2,5-dihydro-1H-pyrrole-1-carboxylate]",7.68
21,"CN(C)CCOc1c(C(=O)N[C@@H]2CCCN(c3cc(-c4ccnc(C#N)c4)n4ncnc(N)c34)C2)[nH]c2ccccc12 [Example 366, (R)-N-(1-(4-amino-7-(2-cyanopyridin-4-yl)pyrrolo[2,1-f][1,2,4]triazin-5-yl)piperidin-3-yl)-3-(2-(dimethylamino)ethoxy)-1H-indole-2-carboxamide]",7.49
22,"CN(C)CCOc1c(C(=O)N[C@@H]2CCCN(c3cc(-c4ccc(C#N)nc4)n4ncnc(N)c34)C2)[nH]c2ccccc12 [Example 367, (R)-N-(1-(4-amino-7-(6-cyanopyridin-3-yl)pyrrolo[2,1-f][1,2,4]triazin-5-yl)piperidin-3-yl)-3-(2-(dimethylamino)ethoxy)-1H-indole-2-carboxamide]",7.39
23,"CN(C)CCOc1c(C(=O)N[C@@H]2CCCN(c3cc(-c4ccc(C#N)c(F)c4)n4ncnc(N)c34)C2)[nH]c2ccccc12 [Example 368, (R)-N-(1-(4-amino-7-(4-cyano-3-fluorophenyl)pyrrolo[2,1-f][1,2,4]triazin-5-yl)piperidin-3-yl)-3-(2-(dimethylamino)ethoxy)-1H-indole-2-carboxamide]",7.44
